From US20180110824A1, “Macrocyclic Modulators of the Ghrelin Receptor” (Ocera Therapeutics, Inc., priority 2016, published 2018) come the findings set out here.

Assay [1] concerns the target T1, human ghrelin receptor (hGHS-R1a) (Homo sapiens, UniProt Q92847).
T1 construct: host or cells: CHO-K1 co-expressing Gα16 and mitochondrially targeted aequorin
Briefly: Aequorin functional assay (ghrelin receptor), CHO-K1 cells co-expressing Gα16 and aequorin. The following applies: Table 4; functional (agonist) activity; TFA salts unless otherwise noted; read-out: EC50. In kind it is cell-based. As for the experimental part:
This cell line is typically constructed by transfection of the human ghrelin receptor into CHO-K1 cells co-expressing Gα16 and the mitochondrially targeted Aequorin (Ref #ES-WT-A5). • 1. […] Assay buffer: DMEM (Dulbecco's Modified Eagles Medium) containing 0.1% BSA (bovine serum albumin; pH 7.0). • 3. Coelenterazine (Molecular Probes, Leiden, The Netherlands). • Final test concentrations (N=8) for compounds of the invention: 10, 1, 0.3, 0.1, 0.03, 0.01, 0.003, 0.001 μM.
Stock solutions of compounds (10 mM in 100% DMSO) were provided frozen on dry ice and stored at −20° C. prior to use. […] Assay plates were then prepared by appropriate dilution in DMEM medium containing 0.1% BSA. Under these conditions, the maximal final DMSO concentration in the assay was <0.6%.
AequoScreen™ cells were collected from culture plates with Ca^2+ and Mg^2+-free phosphate buffered saline (PBS) supplemented with 5 mM EDTA, pelleted for 2 min at 1000×g re-suspended in DMEM—Ham's F12 containing 0.1% BSA at a density of 5×10^6 cells/mL, and incubated O/N at rt in the presence of 5 μM coelenterazine. After loading, cells were diluted with assay buffer to a concentration of 5×10^5 cells/mL.
For agonist testing, 50 μL of the cell suspension was mixed with 50 μL of the appropriate concentration of test compound or ghrelin (reference agonist) in 96-well plates (duplicate samples). Ghrelin (reference agonist) was tested at several concentrations concurrently with the test compounds in order to validate the experiment. The emission of light resulting from receptor activation in response to ghrelin or test compounds was recorded using the Hamamatsu FDSS 6000 reader (Hamamatsu Photonics K.K., Japan).
Results were expressed as Relative Light Units (RLU). […] EC50, Hill slope and % Emax values are reported.
• 1. Assay performed on CHO-K1 cells expressing the transfected, cloned human ghrelin receptor (hGHS-R1a) and Gα16. • 2. Suspended cells incubated O/N with coelenterazine. • 3. Stimulation of hGHS-R1a activates Gα16, causing […] Ca2+ release which ultimately leads to the oxidation of coelenterazine and the emission of a quantitative luminescent signal. • 4. Ghrelin was used as the positive control. • 5.

For another assay, the target named is motilin receptor (Homo sapiens, UniProt O43193). Briefly: Selectivity for the ghrelin receptor versus the motilin receptor. In kind it is binding. The text has this:
The level of agonist activity and selectivity for representative compounds of the invention are shown below in Table 4.

Assay [2] deals with T2, human growth hormone secretagogue receptor (hGHS-R1a) (Homo sapiens, UniProt Q92847).
T2 construct: purchased PerkinElmer BioSignal #RBHGHSM; host or cells: HEK-293, stably transfected
In words: Competitive radioligand binding assay (ghrelin receptor), [125I]-ghrelin displacement on GHS-R/HEK 293 membranes. The following applies: read-out: Ki.

Assay [3] has as its system morphine-delayed gastric emptying and gastrointestinal transit in rats. Briefly: Opioid (morphine)-delayed gastric emptying and gastrointestinal transit in rats. In kind it is in vivo, rat. The following applies: 3 mg/kg, s.c., rats, FIG. 16A. The text has this:
Opioid analgesics, such as morphine, are well known to delay gastrointestinal transit which is an important side-effect for this class of drugs. The clinical term for this syndrome is opioid bowel dysfunction (OBD). Importantly, patients recovering from abdominal surgery experience post-operative ileus that is further exacerbated by concomitant opioid therapy for post-surgical pain.
• 1. Rats (male, Sprague-Dawley, 250-300 g) are implanted with jugular vein catheters to accommodate dosing of test articles. • 2. Overnight-fasted rats are administered morphine (3 mg/kg s.c.). • 3. […] Radioactivity (^99mTc) in each tissue isolate is measured as a means of measuring the transit of the meal.

The test system of assay [4] is gastric emptying in fasted rats. In words: Gastric emptying in fasted rats (phenol red methylcellulose meal). The class given is in vivo, rat. Here is the method:
To examine the effects of compounds of the invention in a model for gastroparesis, compounds were evaluated for possible effects on gastric emptying in fasted rats.
GHRP-6 and test samples were dissolved in vehicle of 9% HPBCD/0.9% NaCl. Immediately following oral administration of methylcellulose (2%) containing phenol red (0.05%) (2 mL/rat), test substances or vehicle (9% HPBCD/0.9% NaCl) were each administered intravenously (i.v.) at a dosing volume of 5 mL/kg.
Male Wistar rats were provided by LASCO (A Charles River Licensee Corporation, Taiwan). Space allocation for 6 animals was 45×23×15 cm. Animals were housed in APEC® cages and maintained in a controlled temperature (22° C.-24° C.) and humidity (60% -80%) environment with 12 h light, 12 h dark cycles for at least one week in the laboratory prior to being used. Free access to standard lab chow for rats (Lab Diet, Rodent Diet, PMI Nutrition International, USA) and tap water was granted. All aspects of this work including housing, experimentation and disposal of animals were performed in general accordance with the Guide for the Care and Use of Laboratory Animals (National Academy Press, Washington, D.C., 1996).
Test substances were each administered intravenously to a group of 5 O/N-fasted Wistar derived male rats weighing 200±20 g immediately after methylcellulose (2%) containing phenol red (0.05%) was administered orally at 2 mL/animal. The animals were then sacrificed 15 minutes later. The stomach was immediately removed, homogenized in 0.1 N NaOH (5 mL) and centrifuged. Following protein precipitation by 20% trichloroacetic acid (0.5 mL)and re-alkalization of the supernatant with 0.1 N NaOH, total phenol red remaining in the stomach was determined by a colorimetric method at 560 nm. A 30 percent or more (≥30%) increase in gastric emptying, detected as the decrease in phenol red concentration in the stomach relative to the vehicle control group, is considered significant.
• 1. Overnight-fasted rats (male Wistar, ˜200 g, N=5/group) were given a meal of methylcellulose (2%) by intragastric gavage. The meal was labeled with phenol red (0.05%). • 2. […] Animals were sacrificed 15 minutes later; the stomach was immediately removed and homogenized in 0.1 N NaOH and centrifuged. • 4. Total phenol red remaining in the stomach was quantified by a colorimetric method at 560 nm. • 5. A >30% increase in gastric emptying, detected based on the phenol red concentration in comparison to the control group, is considered significant.

The mark [5] stands for this setting: Binding activity at the human ghrelin receptor, [125I]-ghrelin displacement.
Where [6] appears, read: Table 4, TFA salts unless otherwise noted.
[7] abbreviates: Table 3B, binding activity at the human ghrelin receptor.

Like-named read-outs stand apart in the source and are kept apart here. A value given as a limit tells only on which side of the number the result lay.

T2 sequence (Q92847 whole entry): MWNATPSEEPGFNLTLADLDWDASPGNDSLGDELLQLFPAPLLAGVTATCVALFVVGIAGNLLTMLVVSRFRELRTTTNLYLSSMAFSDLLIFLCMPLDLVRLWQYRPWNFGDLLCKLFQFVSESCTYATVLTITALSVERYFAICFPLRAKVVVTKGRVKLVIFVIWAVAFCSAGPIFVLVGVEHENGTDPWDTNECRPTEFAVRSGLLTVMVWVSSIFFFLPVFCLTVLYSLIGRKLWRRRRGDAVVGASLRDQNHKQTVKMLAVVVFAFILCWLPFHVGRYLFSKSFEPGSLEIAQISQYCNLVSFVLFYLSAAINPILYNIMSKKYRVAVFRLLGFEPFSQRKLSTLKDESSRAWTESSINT
T1 sequence (Q92847 whole entry): as above
Chain of motilin receptor (O43193 whole entry, species assumed): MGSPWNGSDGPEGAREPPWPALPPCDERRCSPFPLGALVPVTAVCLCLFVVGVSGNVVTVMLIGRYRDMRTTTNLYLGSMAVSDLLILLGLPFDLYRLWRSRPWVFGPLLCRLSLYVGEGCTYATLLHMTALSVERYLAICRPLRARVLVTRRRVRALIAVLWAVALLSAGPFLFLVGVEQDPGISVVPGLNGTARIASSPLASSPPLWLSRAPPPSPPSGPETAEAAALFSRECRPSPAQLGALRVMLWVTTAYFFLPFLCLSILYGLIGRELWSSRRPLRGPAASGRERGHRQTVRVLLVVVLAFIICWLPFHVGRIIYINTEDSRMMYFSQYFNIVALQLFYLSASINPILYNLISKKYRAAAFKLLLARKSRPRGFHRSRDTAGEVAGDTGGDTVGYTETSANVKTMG

By EC50 is commonly meant the concentration needed to bring the measured effect to its halfway point. Broadly, the Ki is a dissociation constant, usually derived from enzyme kinetics or from competition with a known ligand. Take `CCC[C@@H]1NCCOc2ccccc2CCCNC(=O)[C@@H](Cc2c[nH]c3ccccc23)NC(=O)CN(C)C1=O` [Compound 6]: in assay [1], the EC50 lay in the range of 0.001 to 0.1 µM. For the same compound, the Selectivity on motilin receptor was 71/1. The Ki in assay [2] (setting [5]) and in assay [2] (setting [6]) was 0.1 to 1 µM each time.

`C[C@@H]1C(=O)N[C@H](Cc2ccc(Cl)cc2Cl)C(=O)NCCCc2ccccc2OCCN[C@@H](C2CC2)C(=O)N1C` [compound 314]: the 50% effective concentration (EC50) in assay [1] fell in the range of 0.001 to 0.1 µM. For the same compound, on motilin receptor, the Selectivity is listed as >5500/1. Moreover, the Ki in assay [2] (setting [7]) and in assay [2] (setting [6]) was 0.0001 to 0.01 µM each time.

Consider `CCC(C)[C@@H]1NCCOc2ccccc2CCCNC(=O)[C@@H](Cc2ccc(OC)cc2)NC(=O)[C@@H](C)N(C)C1=O` (some centres unmarked) [compound 27], for which the EC50 in assay [1] lay within 0.001 to 0.1 µM. In addition, the Selectivity at motilin receptor was >7100/1. Moreover, the Ki in assay [2] (setting [5]) and in assay [2] (setting [6]) was 0.0001 to 0.01 µM each time.

For `C[C@@H]1C(=O)N[C@H](Cc2ccc(F)cc2)C(=O)NCCCc2ccc(F)cc2OCCN[C@@H](C2CC2)C(=O)N1C` [compound 372], in assay [1], the EC50 fell in the range of 0.001 to 0.1 µM. Besides, at motilin receptor, the Selectivity is 2500/1. Moreover, the Ki in assay [2] (setting [7]) and in assay [2] (setting [6]) was 0.0001 to 0.01 µM throughout.

Consider `C[C@@H]1C(=O)N[C@H](Cc2ccccc2)C(=O)NCCCc2ccccc2OCCN[C@@H](C2CC2)C(=O)N1C` [compound 17], for which, in assay [1], the EC50 was in the range of 0.001 to 0.1 µM. Besides, at motilin receptor, the Selectivity is 2500/1. Besides, the Ki in assay [2] (setting [5]) and in assay [2] (setting [6]) was 0.0001 to 0.01 µM each time.

Turning to `CCC(C)C1NCCOc2ccccc2CCCNC(=O)C(Cc2ccc(F)cc2)NC(=O)C(C)N(C)C1=O` (centres unmarked) [compound 26], the EC50 in assay [1] was 0.001 to 0.1 µM. For the same compound, the Selectivity at motilin receptor is listed as >7700/1. Besides, the Ki in assay [2] (setting [5]) and in assay [2] (setting [6]) was 0.0001 to 0.01 µM in each case.

With `CC(C)C[C@@H]1NCCOc2ccccc2/C=C/CNC(=O)[C@H](Cc2ccccc2)NC(=O)C2(CCCC2)NC1=O` [Compound 8], the EC50 in assay [1] lay in the range of 0.001 to 0.1 µM. The Selectivity at motilin receptor was 200/1. In addition, the Ki in assay [2] (setting [5]) and in assay [2] (setting [6]) was 0.01 to 0.1 µM throughout.

As to `C[C@@H]1C(=O)N[C@H](Cc2ccc(F)cc2)C(=O)NCCCc2ncccc2OCCN[C@@H](C2CC2)C(=O)N1C` [306a], the EC50 in assay [1] is 0.001 to 0.1 µM. Further, the Selectivity at motilin receptor is 714/1. Moreover, the Ki in assay [2] (setting [7]) and in assay [2] (setting [6]) was 0.01 to 0.1 µM throughout.

Turning to `CCCC[C@@H]1NCCOc2ccccc2CCCNC(=O)[C@@H](Cc2ccccc2)NC(=O)CN(C)C1=O` [Compound 1], in assay [1], the EC50 was in the range of 0.1 to 1 µM. In addition, the Selectivity on motilin receptor is listed as 142/1. Also, the Ki in assay [2] (setting [5]) and in assay [2] (setting [6]) was 0.01 to 0.1 µM throughout.

For `CC(C)[C@@H]1NCCOc2ccccc2CCCNC(=O)[C@H](Cc2ccccc2)NC(=O)C2(CCCC2)NC1=O` [Compound 9], the EC50 in assay [1] is 0.1 to 1 µM. In addition, the Selectivity at motilin receptor is 117/1. The Ki in assay [2] (setting [5]) and in assay [2] (setting [6]) was 0.1 to 1 µM each time.

Take `O=C1NC/C=C/c2ccccc2OCCNC2(CCCC2)C(=O)NC2(CCCC2)C(=O)N[C@H]1Cc1ccccc1` [compound 18]: in assay [1], the EC50 was in the range of 0.001 to 0.1 µM. Also, the Selectivity on motilin receptor is on record as 222/1. The Ki in assay [2] (setting [5]), in assay [2] (Table 3C) and in assay [2] (setting [6]) was 0.01 to 0.1 µM throughout.

For `CCC(C)[C@@H]1NCCOc2ccccc2/C=C/CNC(=O)[C@H](Cc2cccc(Cl)c2)NC(=O)C2(CCCC2)NC1=O` (some centres unmarked) [345a], in assay [1], the EC50 lay within 0.001 to 0.1 µM. For the same compound, the Selectivity on motilin receptor is listed as >159/1. The Ki was in the range of 0.1 to 1 µM in assay [2] (setting [7]) and 0.01 to 0.1 µM in assay [2] (setting [6]).

Take `CCC[C@@H]1NCCOc2ccccc2CCCNC(=O)[C@@H](Cc2ccc(O)cc2)NC(=O)CN(C)C1=O` [compound 7]: in assay [1], the EC50 was 0.001 to 0.1 µM. For the same compound, the Selectivity on motilin receptor was >100/1. The Ki in assay [2] (setting [5]) and in assay [2] (setting [6]) was 0.1 to 1 µM each time.

Take `CC[C@H](C)[C@@H]1NCCOc2ccc(F)cc2CCCNC(=O)[C@H](Cc2cccc(Cl)c2)NC(=O)C2(CCCC2)NC1=O` [compound 382]: the EC50 in assay [1] was 0.1 to 1 µM. Besides, at motilin receptor, the Selectivity is 74/1. Moreover, the Ki in assay [2] (setting [7]) and in assay [2] (setting [6]) was 0.01 to 0.1 µM throughout.

In the case of `C[C@H]1NC(=O)C2(CCCC2)NCCOc2ccccc2/C=C/CNC(=O)[C@H](Cc2cccc(Cl)c2)NC1=O` [compound 351], the EC50 in assay [1] is 0.001 to 0.1 µM. Besides, the Selectivity on motilin receptor is given as 450/1. Besides, the inhibition constant Ki in assay [2] (Table 3C) and in assay [2] (setting [6]) was 0.01 to 0.1 µM in each case.

`CN1CC[C@]23c4c5ccc(O)c4O[C@H]2[C@@H](O)C=C[C@H]3[C@H]1C5` [Morphine, morphine, reference compound]: the “gastric emptying and intestinal transit” value in assay [3] is “significantly delayed gastric emptying and intestinal transit”.

Consider `CCC[C@@H]1NCCOc2ccccc2CCCNC(=O)[C@@H](Cc2ccccc2)NC(=O)CN(C)C1=O` [Compound 10], for which the EC50 in assay [1] lay in the range of 0.001 to 0.1 µM. In addition, the Selectivity on motilin receptor was 304/1. Further, the Ki in assay [2] (setting [5]) and in assay [2] (setting [6]) was 0.01 to 0.1 µM in each case.

For `CCN(CC)CCNC(=O)c1cc(Cl)c(N)cc1OC` [metoclopramide, Metoclopramide, reference compound], the “increase in gastric emptying relative to the vehicle control group” value in assay [4] (10 mg/kg i.v., fasted rats) was 41%. For the same compound, the “gastric emptying of a meal in naïve rat” value in assay [4] (i.v., FIGS. 14A and 14B) is “demonstrated significant gastric emptying”.
